Values of other authors, collected in publication PMC5459304 (International journal of toxicology, 2017).

Test system: patients

CC1(C)C(/C=C/C=C/C=C/C=C2\N(CCCCS(=O)(=O)O)c3ccc4ccccc4c3C2(C)C)=[N+](CCCCS(=O)(=O)[O-])c2ccc3ccccc3c21 [ICG, indocyanine green]
severe reaction rate (1 severe reaction among 1226 patients): 0.05%
number of reactions (1226 patients): 7 reactions out of 1923 ICG angiograms
adverse reaction rate (1923 ICG angiograms in 1226 patients): 0.3%
number of severe reactions (ICG angiograms from Japanese ophthalmologists): 2 severe reactions among 2820 patients
